“Also recorded” adds a separate entry of the source. Where two headings read alike, the source gives them in different places.
Experiments:
[1] = cited from earlier work
[2] = Weber C C et al. 2006; cited from earlier work
[3] = cited from earlier work; remark: listed apart in the source
[4] = Plasma and brain levels of βBA and AKBA via os in mice (Gerbeth K et al. 2013); assay type: in vivo
Excerpt: βBA appears not to undergo blood-brain barrier. According to the data of Gerbeth K et al. 2013, brain levels of AKBA were very low, resulting 0.4 per AKBA in the brain/plasma ratio (but 0.81 according to Weber C C et al. 2006). In contrast, the § BA concentration in the brain was even higher than that found in the blood with 32% increase (See Table 1).

[5] = Pharmacokinetics of βBA and AKBA via os in healthy volunteers, fasted and hyperlipidic meal (Sterk V et al. 2004); assay type: in vivo, humans; settings: healthy volunteers
Excerpt: Indeed, βBA has a concentration in the blood: • at least 6 times higher than AKBA both in the fasting condition and with a hyperlipidic meal; • increased by 6 times after hyperlipidic meal so that the plasma/os ratio passes from 0.09 to 0.55.

[6] = healthy volunteers, via os, cited from earlier work
[7] = cited from earlier work; remark: listed apart in the source
[8] = mice; cited from earlier work
[9] = test system: intact mice; experiment: Behavioral tests on intact animals (open field, freezing); assay type: in vivo; settings: for lowest dose showing antidepressant effects: intact mice, preliminary experiments (unpublished observations); for effect in behavioral tests, individually: mouse, in vivo
Description: The trials were performed at the Department of Clinical and Experimental Medicine of the University of Foggia according to the following rationale. • 1. In the present mouse model of beta-amyloid toxicity, using validated tests in mice, we evaluated the behaviors: • a. antidepressant: Tail Suspension Test (TST); Forced Swimming Test (FST); Splash Test (ST) with latency time (sec) and self-care (sec) measurement. • b. antianxiety: Open Field Test with measurement of distance traveled (m), time spent in the wall (sec), time spent in the center (sec), center entries (n); Freezing Test (sec). • c. on memory, learning, coordination of motor skills, fear conditioning: Rotarod Test with measure of Latency to Fall, repeated after training to evaluate motor learning. • 2. We tested the protective effects with the following procedure: • a. individually: βCP, FE, βBA, DHA and HA4; • b. in association with pairs: βCP+HA4, FE+HA4, βBA+HA4, FE+βCP, βBA+FE, βBA+βCP. • c. in association, all four together: βCP+FE+βBA+HA4 • d. versus control (SHAM), • e. using the mouse model of an Aβ-induced depressive phenotype. • 3. These behavioral tests were integrated with serotonin, dopamine, noradrenaline and their metabolites prefrontal cortex and hippocampus measurement. • 4. Furthermore, we evaluated the cortical and hippocampal glutamate (GLU) levels in mice treated with AP and subsequently we tested the ability of βCP, FE, βBA and HA4, to modulate this neurochemical parameter.
βCP, FE e βBA (Merck, Cayman Chemical Company) was dissolved in sunflower oil, this vehicle was chosen in order to maintain a better tasting and higher density of the final solution thus reducing reflux through the digestive tract.
(§1) Ten μl of the solution (or vehicle alone) were administered sublingually to mice. Brain βCP, FE e βBA were quantified in a separate subset of mice at 5, 15 and 30 min after their administration.
Open Field Test. Mice were placed in an open field arena and allowed to explore for 30 min [Lama A et al. 2021]. After each trial, the arena floor was cleaned with 70% ethanol to avoid inter-assay bias. The movements of mice were video recorded and analyzed by ANY-maze tracking software (Ugo Basile-Varese, Gemonio, Italy). Locomotion was evaluated through total crossing measurements.

[10] = test system: glutamate (GLU); experiment: Glutamate levels in mice treated with Aβ icv (FIG. 7); assay type: in vivo; settings: after 7 days
Description: (§2) The Aβ1-42, obtained from Tocris (Bristol, UK), was dissolved in sterile double-distilled pyrogenic-free water, as vehicle, to obtain a final concentration 4 μM [Colaianna M et al. 2010]. Mice were anesthetized with a solution (0.85 in ml/kg, i.p.), containing ketamine (Sigma Aldrich, Milan, Italy, 100 mg/10 ml), xylazine (Sigma Aldrich, Milan, Italy, 100 mg/10 ml) and acepromazine (prequillant, ATI Azienda Terapeutica Veterinaria Srl, 10 mg/10 ml) dissolved in saline solution. Animals were secured in a stereotaxic frame (David Kopf Instruments, Tujunga, CA, USA) and the peptide injection was accomplished in the lateral ventricle of mice at the following coordinates: AP=−0.2, ML=+1 e DV=2 relative to bregma, according to the atlas of Paxinos and Franklin [Paxinos G and Franklin K B J 2019]. […] At the time of dissection, the correct needle track was assessed. […]
(§3) 5-HT, noradrenaline (NA), and KYN levels were measured in the PFC and HIPP of mice by HPLC coupled with an electrochemical detector (Ultimate ECD, Thermo Scientific Dionex, Milan, Italy) as already reported [Francavilla M et al. 2012, Morgese M G et al. 2016]. […] GLU concentrations were determined by HPLC coupled with fluorescence detection (emission length 460 nm; excitation length 340 nm), as previously published [Francavilla M et al. 2012]. […]

[11] = test system: CD11b; experiment: CD11b protein levels in mice treated with Aβ icv, Western blotting (FIG. 8); assay type: in vivo; settings: PFC and HIPP, HA4 0.2 mg/mouse
Description: (§4) The total amount of proteins was measured in homogenates by using Pierce BCA Assay (Thermo Fisher Scientific, Cleveland, OH, USA). […] After HRP-conjugated specific antibody incubation, ECL reagent (Bio-Rad Laboratories Inc., Segrate (MI), Italy) was added to the immune complex and chemiluminescence was detected by ChemiDoc MP system (Bio-Rad Laboratories Inc., Segrate (MI), Italy). Optical densities of the bands were measured using Image J software (http://rsb.info.nih.gov/ij/ accessed on 15 Mar. 2021) and normalized against bands relative to -actin (1:5,000, Abcam, Cambridge, UK).

[12] = test system: kynurenine (KYN); experiment: Kynurenine levels in mice treated with Aβ icv (FIG. 6); assay type: in vivo; settings: prefrontal cortex and hippocampus, HA4 0.2 mg/mouse
Description: as §2, §3

[13] = test system: GFAP; experiment: GFAP protein levels in mice treated with Aβ icv, Western blotting (FIG. 9); assay type: in vivo; settings: PFC and HIPP, HA4 0.2 mg/mouse
Description: as §4

[14] = test system: dopamine (DA); experiment: Dopamine (DA) levels in Aβ icv-treated mice (FIG. 5c); assay type: in vivo; settings: HIPP
[15] = test system: mice treated with Aβ icv; experiment: Splash test in SHAM mice and mice treated with Aβ icv (FIG. 4); assay type: in vivo; settings: after 7 days, HA4 200 μg, βCP 50 μg, βBA 100 μg, FE 50 μg sublingually
Description: The Aβ1-42, obtained from Tocris (Bristol, UK), was dissolved in sterile double-distilled pyrogenic-free water, as vehicle, to obtain a final concentration 4 μM [Colaianna M et al. 2010]. Mice were anesthetized with a solution (0.85 in ml/kg, i.p.), containing ketamine (Sigma Aldrich, Milan, Italy, 100 mg/10 ml), xylazine (Sigma Aldrich, Milan, Italy, 100 mg/10 ml) and acepromazine (prequillant, ATI Azienda Terapeutica Veterinaria Srl, 10 mg/10 ml) dissolved in saline solution. […] At the time of dissection, the correct needle track was assessed. […]
as §1
All behavioral experiments were conducted at 5 or 30 min after sublingual administrations of βBA or vehicle in mice treated with SHAM or AP. Based on the observed behavioral results, neurochemical and biochemical quantifications were performed 30 min after administration of βCP, FE, and βBA or vehicle in SHAM- or Aβ-treated mice.
Splash test. […] The test was videotaped and later an observer, blind to the trial, scored for latency to the first grooming event and duration of self-care behavior during the period of the test (5 min).

[16] = in vivo; cited from earlier work
[17] = cited from earlier work; remark: listed apart in the source
[18] = mice, cited from earlier work
[19] = intact animals, hyaluronic acid only (FIG. 3)

CC(=O)O[C@@H]1CC[C@@]2(C)[C@@H](CC[C@]3(C)[C@@H]2C(=O)C=C2[C@@H]4[C@@H](C)[C@H](C)CC[C@]4(C)CC[C@]23C)[C@@]1(C)C(=O)O [AKBA, acetyl-11-keto-beta-boswellic acid]
blood concentration ([1]; 80 mg AKBA to 13 patients, found in only one of them): 15.5 ng/mL | concentration in the plasma ([1]; patients, via os): 0-15 ng/g o ng/ml | brain/plasma ratio [2]: 0.81 | brain/plasma ratio ([3]; Gerbeth K et al. 2013): 0.4 | reduction of blood concentration compared to the dose introduced orally ([3]; mice, via os, intestinal mucosa to blood): 80 times | concentration in the brain ([3]; mice, via os): 37.5 ng/g o ng/ml | concentration in the plasma ([3]; mice, via os): 93 ng/g o ng/ml | reduction of concentration when crossing the blood-brain barrier ([3]; mice): more than twice | Δos/brain [4]: 204 | Δos/plasma [4]: 82 | Δplasma/brain [4]: 2.5 | Δos/plasma ([5]; fasted conditions): 68 fasted | Δos/plasma ([5]; hyperlipidic fed conditions): 15 hyperlipidic | concentration in the plasma ([6]; fasted conditions): 6 fasted ng/g o ng/ml | concentration in the plasma ([6]; hyperlipidic fed conditions): 28 hyperlipidic ng/g o ng/ml

CC/C=C\C/C=C\C/C=C\C/C=C\C/C=C\C/C=C\CCC(=O)O [DHA, docosahexaenoic acid]
harmless dose ([7]; adult humans): at least 7.5 g/day | safe dose ([7]; children): at least 315 mg/day | safe dose [8]: ≤ 3.2 g/kg/day

CC1=CC=C[C@]2(C)Cc3occ(C)c3C[C@@H]12 [FE, furanoeudesma-1,3-diene]
lowest dose showing antidepressant effects [9]: 5 mg/kg | effect in behavioral tests, individually [9]: antidepressant and anxiolytic effect

CC(=O)N[C@H]1[C@H](O[C@H]2[C@H](O)[C@@H](O)[C@H](O[C@H]3[C@H](O)[C@@H](CO)OC(O)[C@@H]3NC(C)=O)O[C@@H]2C(=O)O)O[C@H](CO)[C@@H](O)[C@@H]1O[C@@H]1O[C@H](C(=O)O)[C@@H](O)[C@H](O)[C@H]1O (stereo partly shown) [HA4, hyaluronic acid HA4 tetrasaccharide]
Glutamate levels [10]: increase in glutamate | CD11b protein levels [11]: Significant reduction of CD11b in both PFC and HIPP | Kynurenine levels [12]: significant reduction | freezing [9, 19]: clear anxiolytic and antidepressant effect | locomotor activity [9, 19]: does not create deficits in the animal's locomotor activity | effect in behavioral tests, individually [9]: antidepressant and anxiolytic effect | GFAP protein levels [13]: significant reduction; also recorded: removes GFAP alterations in both PFC and HIPP

C=C1CC/C=C(\C)CC[C@@H]2[C@@H]1CC2(C)C [βCP, β-caryophyllene]
Dopamine (DA) levels [14]: increase in dopaminergic activity in HIPP | Splash test latency time (antidepressant effect) [15]: antidepressant effect | toxic dose (category 5 substance, OECD guidelines) [16]: greater than 2,000 mg/kg | pathological changes ([17]; mice, 100 mg/kg i.p.): no evidence of pathological changes | LD50 ([17]; mouse, in vivo, ip): 316 mg/kg | lowest dose showing antidepressant effects [9]: 5 mg/kg | effect in behavioral tests, individually [9]: antidepressant and anxiolytic effect

Hyaluronic acid
LD50 ([18]; intraperitoneum): 1,500 mg/kg | LD50 ([18]; subcutaneous): > 4,000 mg/kg | LD50 ([18]; via os): > 2,400 mg/kg

Source: US20260115162A1, “COMPOSITION OR ASSOCIATION OF COMPOUNDS PREFERABLY FOR USE IN THE TREATMENT OF NERVOUS DISEASES IN PARTICULAR NEURODEGENERATIVE DISEASES, METHOD FOR THE PREPARATION OF SUCH COMPOSITION OR ASSOCIATION OF COMPOUNDS AND USES THEREOF” (PHARMACEUTICA SAN MARCO S.R.L., priority 2022, published 2026)
